Results taken from patent US8846951B2 (AbbVie Inc., priority 2009, dated 2014).
Read-outs that look alike come from different tables or passages of the source.

Columns and labels:
5HT2B receptors = target: T1, 5HT2B receptors (Homo sapiens, UniProt P41595); assay: Human 5-HT2B functional high throughput screening assay in CHO-K1 cells (calcium flux); assay type: cell-based; settings: for EC50: CHO-K1 cells, calcium flux
T1 construct: expressed in transfected cells; host or cells: CHO-K1 cells
In short: (§1)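 Calcium flux in CHO-K1 cells overexpressing each receptor, using Ca4 dye with probenecid and FLIPR detection. Top concentration was 10 μM, diluted 1:10 across 6 points, and efficacy was scaled to serotonin.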

5HT2C receptors = target: T2, 5HT2C receptors (Homo sapiens, UniProt P28335); assay: Human 5-HT2C functional high throughput screening assay in CHO-K1 cells (calcium flux); assay type: cell-based; design: expressed in transfected cells; host or cells: CHO-K1 cells; settings: for EC50: CHO-K1 cells, calcium flux; for Emax: CHO-K1, 5-HT2C, maximum functional response as percentage relative to the effect of serotonin
T2 sequence (P28335 33-458): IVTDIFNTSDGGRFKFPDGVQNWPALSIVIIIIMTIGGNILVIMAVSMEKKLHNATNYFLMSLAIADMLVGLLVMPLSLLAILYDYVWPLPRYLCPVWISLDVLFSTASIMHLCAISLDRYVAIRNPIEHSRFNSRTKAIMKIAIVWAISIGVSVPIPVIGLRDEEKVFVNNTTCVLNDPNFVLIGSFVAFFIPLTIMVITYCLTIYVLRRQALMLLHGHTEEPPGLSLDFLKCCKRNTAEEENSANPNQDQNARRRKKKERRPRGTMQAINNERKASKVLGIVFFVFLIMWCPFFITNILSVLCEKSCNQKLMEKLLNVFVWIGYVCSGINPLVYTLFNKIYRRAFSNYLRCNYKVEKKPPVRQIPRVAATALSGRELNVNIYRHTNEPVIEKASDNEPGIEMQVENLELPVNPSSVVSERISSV
In short: as §1

[1] = 5-HT2B agonist activity, read-out: EC50
[2] = 5-HT2B, maximum functional response as percentage relative to the effect of serotonin
[3] = 5-HT2C agonist activity, read-out: EC50
[4] = CHO-K1, 5-HT2B, maximum functional response as percentage relative to the effect of serotonin, read-out: Emax

T1 sequence (P41595 whole entry): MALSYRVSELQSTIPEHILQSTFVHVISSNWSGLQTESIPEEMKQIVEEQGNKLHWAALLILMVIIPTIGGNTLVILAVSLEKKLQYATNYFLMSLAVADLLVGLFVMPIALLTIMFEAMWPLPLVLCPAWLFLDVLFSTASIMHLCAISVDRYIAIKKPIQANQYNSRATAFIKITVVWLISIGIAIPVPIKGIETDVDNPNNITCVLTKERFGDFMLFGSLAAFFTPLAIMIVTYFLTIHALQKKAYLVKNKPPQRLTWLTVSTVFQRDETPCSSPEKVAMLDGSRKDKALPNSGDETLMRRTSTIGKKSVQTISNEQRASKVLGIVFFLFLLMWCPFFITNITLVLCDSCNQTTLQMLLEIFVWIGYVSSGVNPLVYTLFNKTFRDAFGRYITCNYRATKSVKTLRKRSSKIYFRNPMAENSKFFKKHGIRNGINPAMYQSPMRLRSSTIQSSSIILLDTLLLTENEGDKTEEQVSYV

EC50 (5HT2B receptors; [1]) [nM]	Emax (5HT2B receptors; [2])	EC50 (5HT2C receptors; [3]) [nM]	Emax (5HT2C receptors; read-out: Emax) [%]	Emax (5HT2B receptors; [4]) [%]	SMILES	Emax (5HT2B receptors; CHO-K1) [%]	EC50 (5HT2B receptors; EC50, 5-HT2B agonist activity) [nM]	Emax (5HT2C receptors) [%]	EC50 (5HT2C receptors; EC50, 5-HT2C agonist activity) [nM]
> 10000	inactive	100	> 120		O=C1NC[C@@H]2CN(Cc3ccccc3)C[C@H]2c2ccc(OCCc3cccc(F)c3)cc21 (relative stereo) [Example 119, Trans-2-benzyl-8-(3-fluorophenethoxy)-1,2,3,3a,4,5-hexahydrobenzo[e]pyrrolo[3,4-c]azepin-6(10bH)-one]				
					O=C1NC[C@@H]2CNC[C@H]2c2ncccc21 (relative stereo) [Example 153, Trans-7,7a,8,9,10,10a-hexahydropyrido[2,3-e]pyrrolo[3,4-c]azepin-5(6H)-one]	30	> 10000	> 120	80
					Oc1cccc2c1[C@H]1CNC[C@@H]1CCO2 (relative stereo) [Example 374, Trans-2,3,3a,4,5,10b-hexahydro-1H-[1]benzoxepino[4,5-c]pyrrol-10-ol]	30	700	90	80
					Fc1ccc2c(c1)[C@@H]1CNC[C@@H]1CCO2 (relative stereo) [Example 284, Cis-9-fluoro-2,3,3a,4,5,10b-hexahydro-1H-[1]benzoxepino[4,5-c]pyrrole]	55	10	85	400
> 10000	inactive	70	75		COc1c(C)cc(-c2ccc3c(c2)C(=O)NC[C@@H]2CN(C)C[C@@H]32)cc1C (relative stereo) [Example 317, Trans-8-(4-methoxy-3,5-dimethylphenyl)-2-methyl-2,3,3a,4,5,10b-hexahydropyrrolo[3,4-d][2]benzazepin-6(1H)-one]				
1000		200	65	15	Cc1cc(C)c(S(=O)(=O)N2Cc3cccnc3[C@@H]3CNC[C@H]3C2)c(C)c1 (relative stereo) [Example 363, Trans-6-(mesitylsulfonyl)-5,6,7,7a,8,9,10,10a-octahydropyrido[3,2-c]pyrrolo[3,4-e]azepine]				
> 10000	inactive	2	100		C[C@H](O)c1cccc(-c2ccc3c(c2)C(=O)NC[C@H]2CN(C)C[C@H]32)c1 [Example 248, (3aS,10bS)-8-(3-((S)-1-Hydroxyethyl)phenyl)-2-methyl-1,2,3,3a,4,5-hexahydrobenzo[e]pyrrolo[3,4-c]azepin-6(10bH)-one]				
> 10000	inactive	200	> 120		COC(=O)c1ccc2c(c1)C(=O)NC[C@@H]1CN(Cc3ccccc3)C[C@@H]21 (relative stereo) [Example 129, Trans-methyl 2-benzyl-6-oxo-1,2,3,3a,4,5,6,10b-octahydrobenzo[e]pyrrolo[3,4-c]azepine-8-carboxylate]				
					COc1ccc2c(c1)[C@H]1CNC[C@@H]1CCC2 (relative stereo) [Example 263, Trans-9-methoxy-1,2,3,3a,4,5,6,10b-octahydrobenzo[3,4]cyclohepta[1,2-c]pyrrole]	100	20	> 120	100
> 10000	inactive	0.9	> 120		O=C1NC[C@@H]2CNC[C@H]2c2ccc(OCc3ccccc3C(F)(F)F)cc21 (relative stereo) [Example 148, Trans-8-(2-(trifluoromethyl)benzyloxy)-1,2,3,3a,4,5-hexahydrobenzo[e]pyrrolo[3,4-c]azepin-6(10bH)-one]				
> 10000	inactive	100	> 120		CC(C)c1ccc(-c2ccc3c(c2)C(=O)NC[C@@H]2CN(C)C[C@@H]32)cc1 (relative stereo) [Example 138, Trans-8-(4-isopropylphenyl)-2-methyl-1,2,3,3a,4,5-hexahydrobenzo[e]pyrrolo[3,4-c]azepin-6(10bH)-one]				
> 10000	inactive	1000	80		CN1C[C@H]2CNC(=O)c3cc(C(=O)NCCc4cccc(C(F)(F)F)c4)ccc3[C@@H]2C1 (relative stereo) [Example 127, Trans-2-methyl-6-oxo-N-(3-(trifluoromethyl)phenethyl)-1,2,3,3a,4,5,6,10b-octahydrobenzo[e]pyrrolo[3,4-c]azepine-8-carboxamide]				
200		300	80	95	COc1ccccc1S(=O)(=O)N1Cc2cccnc2[C@@H]2CNC[C@H]2C1 (relative stereo) [Example 354, Trans-6-[(2-methoxyphenyl)sulfonyl]-5,6,7,7a,8,9,10,10a-octahydropyrido[3,2-c]pyrrolo[3,4-e]azepine]				
> 10000	inactive	3	> 120		CC(=O)c1cccc(-c2ccc3c(c2)C(=O)NC[C@@H]2CN(C)C[C@@H]32)c1 (relative stereo) [Example 237, Trans-8-(3-acetylphenyl)-2-methyl-1,2,3,3a,4,5-hexahydrobenzo[c]pyrrolo[3,4-e]azepin-6(10bH)-one]				
> 10000	inactive	90	100		CNC(=O)c1cccc(-c2ccc3c(c2)C(=O)NC[C@@H]2CN(C)C[C@@H]32)c1 (relative stereo) [Example 382, N-Methyl-3-[Trans-2-methyl-6-oxo-1,2,3,3a,4,5,6,10b-octahydropyrrolo[3,4-d][2]benzazepin-8-yl]benzamide]				

SMILES	EC50 (5HT2B receptors; [1]) [nM]	Emax (5HT2B receptors; [2])	EC50 (5HT2C receptors; [3]) [nM]	Emax (5HT2C receptors; read-out: Emax) [%]	Emax (5HT2B receptors; [4]) [%]	Emax (5HT2B receptors; CHO-K1) [%]	EC50 (5HT2B receptors; EC50, 5-HT2B agonist activity) [nM]	Emax (5HT2C receptors) [%]	EC50 (5HT2C receptors; EC50, 5-HT2C agonist activity) [nM]
CC(C)CCOc1ccc2c(c1)C(=O)NC[C@@H]1CNC[C@@H]21 (relative stereo) [Example 169, Trans-8-(isopentyloxy)-1,2,3,3a,4,5-hexahydrobenzo[e]pyrrolo[3,4-c]azepin-6(10bH)-one]		inactive					> 10000	> 120	1
O=C1NC[C@@H]2CNC[C@H]2c2cccnc21 (relative stereo) [Example 157, Trans-1,2,3,3a,4,5-hexahydropyrido[3,2-e]pyrrolo[3,4-c]azepin-6(10bH)-one]	> 10000	inactive	3000					110	
C[C@@H](Oc1ccc2c(c1)C(=O)NC[C@@H]1CNC[C@@H]21)c1ccccc1 (mixture of isomers) [Example 150, Trans-8-((R)-1-phenylethoxy)-1,2,3,3a,4,5-hexahydrobenzo[e]pyrrolo[3,4-c]azepin-6(10bH)-one]		inactive					> 10000	> 120	50
CC(C)c1ccc2c(c1)C(=O)NC[C@@H]1CN(C)C[C@@H]21 (relative stereo) [Example 196, Trans-8-isopropyl-2-methyl-1,2,3,3a,4,5-hexahydrobenzo[e]pyrrolo[3,4-c]azepin-6(10bH)-one]	> 10000	inactive	500					30	
O=S(=O)(c1cccs1)N1Cc2cccnc2[C@@H]2CNC[C@H]2C1 (relative stereo) [Example 358, Trans-6-(2-thienylsulfonyl)-5,6,7,7a,8,9,10,10a-octahydropyrido[3,2-c]pyrrolo[3,4-e]azepine]	> 10000	inactive	300					20	
CC(C)COc1ccc2c(c1)C(=O)NC[C@@H]1CNC[C@@H]21 [Example 309, (3aS,10bR)-8-Isobutoxy-2,3,3a,4,5,10b-hexahydropyrrolo[3,4-d][2]benzazepin-6(1H)-one]		inactive					> 10000	70	
CN1C[C@H]2CNC(=O)c3cc(C4=CCCC4)ccc3[C@@H]2C1 (relative stereo) [Example 201, Trans-8-cyclopentenyl-2-methyl-1,2,3,3a,4,5-hexahydrobenzo[e]pyrrolo[3,4-c]azepin-6(10bH)-one]		inactive					> 10000	120	100
CN1C[C@@H]2CCOc3c(-c4cccnc4)cccc3[C@H]2C1 (relative stereo) [Example 370, Trans-2-methyl-7-(pyridin-3-yl)-2,3,3a,4,5,10b-hexahydro-1H-[1]benzoxepino[4,5-c]pyrrole]	> 10000	inactive	400					90	
CC(=O)N1CC[C@@H]2CNC[C@H]2c2ccccc21 (relative stereo) [Example 328, 1-[Trans-2,3,3a,4,5,10b-hexahydropyrrolo[3,4-d][1]benzazepin-6(1H)-yl]ethanone]	4000		900			60		90	
